Test results taken from patent publication US12194048B2, “Use of pyrrolopyridine derivatives for preventing or treating inflammatory diseases” (VORONOI CO., LTD., priority 2020, dated 2025).

Assays:
[1] = tested on: IMQ-induced psoriasis-like skin inflammation model; experiment: Oral treatment in imiquimod (IMQ)-induced psoriasis-like skin inflammation; format: in vivo, BALB/c mice
Method: The positive control, methotrexate at 2 mg/kg and tofacitinib at 5 mg/kg were administered by oral gavage twice (BID) daily during the same study period.
Fifteen (15) mg Imiquimod (IMQ) cream (5%) (Aldara; 3M Pharmaceuticals) was topically (TOP) administered once daily (QD) on the right ear one hour after treatment from Day 1 to Day 9 for 9 consecutive days, translating to a daily dose of 0.75 mg of the active compound. Ear swelling was measured on Day 0 and thereafter 30 min before dosing on Days 2, 4, 6 and 8. On Day 10, ear swelling was measured 24 hours after the last dosing.

[2] = tested on: IMQ-induced psoriasis-like skin inflammation model; experiment: Topical treatment in imiquimod (IMQ)-induced psoriasis-like skin inflammation; format: in vivo, BALB/c mice; conditions: 0.15% topical; during the study period
Method: Dexamethasone (0.15%), the reference compound, was applied topically at 20 μL/mouse on the right ear once daily (QD) during the same study period.
Fifteen (15) mg imiquimod (IMQ) cream (5%) (Aldara; 3M Pharmaceuticals) was topically administered once daily (QD) on the right ear one hour after treatment from Day 1 to Day 9 for 9 consecutive days, translating to a daily dose of 0.75 mg of the active compound.
Ear swelling was measured on Day 0 and thereafter 30 min before dosing on Days 2, 4, 6 and 8. On Day 10, ear swelling was measured 24 hours after the last dosing.

Question: Which IMQ-induced ear swelling ([1]; 5 mg/kg oral gavage BID, Day 8 to Day 10) does the source give for C[C@@H]1CCN(C(=O)CC#N)C[C@@H]1N(C)c1ncnc2[nH]ccc12 [Tofacitinib, tofacitinib] here?
Answer: Its IMQ-induced ear swelling is “significant (p<0.05) inhibition”.

Question: How did the body weight [2] turn out when C[C@@H]1C[C@H]2[C@@H]3CCC4=CC(=O)C=C[C@]4(C)[C@@]3(F)[C@@H](O)C[C@]2(C)[C@@]1(O)C(=O)CO [dexamethasone, reference compound] was run?
Answer: Its body weight is “significant (p<0.05) decrease”.

Question: What does the source list for CN(Cc1cnc2nc(N)nc(N)c2n1)c1ccc(C(=O)N[C@@H](CCC(=O)O)C(=O)O)cc1 [methotrexate]?
Answer: body weight ([1]; 2 mg/kg PO BID×9 days, Day 9 to Day 10): significantly decreased; IMQ-induced ear swelling ([1]; 2 mg/kg oral gavage BID, Day 8, vs vehicle group): significant (p<0.05) effect
